Reference: article PMC9244909 (ACS Omega, 2022)
“And” between values parts separate entries of the source, which are not always exact repeats. Equal entries are not always repeated.

Tests used:
[1] = test system: SARS-CoV-2 VOC-202012/01 strain; format: cell-based
[2] = cited from earlier work

| SMILES | 100% CPE inhibitory concentration (CPEIC100) [1] | time to maximal effectiveness on the coronavirus ([1]; after starting treatment) | plasma half-life [2] | time of peak plasma concentrations [2] |
| --- | --- | --- | --- | --- |
| N#C[C@@]1(c2ccc3c(N)ncnn23)O[C@H](CO)[C@@H](O)[C@H]1O [GS-441524] | 17.40 µM and 17.40 ± 1.83 µM |  |  |  |
| CCC(CC)COC(=O)[C@H](C)N[P@](=O)(OC[C@H]1O[C@@](C#N)(c2ccc3c(N)ncnn23)[C@H](O)[C@@H]1O)Oc1ccccc1 [remdesivir] | 25.17 µM and 25.17 ± 2.51 µM |  |  |  |
| O=c1nc[nH]c2c1ncn2[C@H]1CC[C@@H](CO)O1 [DDI, 9-[(2R,5S)-5-(hydroxymethyl)oxolan-2-yl]-3H-purin-6-one] | 8.95 µM and 8.95 ± 0.52 µM | 12 to 24 h | ≤ 2 h | 0.5 to 1.5 h |
